This note sets out measurements from publication PMC9370166, “In Vitro and In Vivo Antibacterial Activity, Toxicity and Resistance Analysis of Pleuromutilin Derivative Z33 against Methicillin-Resistant Staphylococcus aureus” (Molecules, 2022).

Data set [1] has as its system S. aureus clinical strain 144. Kind of data set: MIC and MBC determination (broth microdilution). In kind it is cell-based. Particulars: Staphylococcus aureus. As to the method: (§1) The MIC values of Z33 against MRSA ATCC 43300 and S. aureus clinical isolates were measured according to the broth microdilution guidelines provided by the Clinical and Laboratory Standards Institute (CLSI). S. aureus ATCC 29213 was used as the quality control strain, and the quality control range was referred to the CLSI. The MIC value is defined as the lowest concentration of the compounds with no visible growth of bacteria. The MIC assay was independently repeated three times.
(§2) The MBC values of antibacterial agents were measured after incubation at 37 °C for 24 h. Briefly, 100 µL of bacterial solution from the three wells behind the corresponding well of MIC was absorbed and spread on the Mueller–Hinton Agar (MHA). The MBC refers to the lowest concentration corresponding to the amount of colony-forming unit (CFU) ≤ 5 on the medium after 18~24 h of incubation at 37 °C.

In data set [2] the test system is S. aureus clinical strain AD3. Kind of data set: MIC and MBC determination (broth microdilution). Particulars: Staphylococcus aureus. It is filed as cell-based. As to the method:
as §1, §2
In general terms: Broth dilution looks for growth in wells or tubes with falling amounts of substance.

Data set [3] has as its system MRSA ATCC 43300. Kind of data set: MIC and MBC determination (broth microdilution). It is filed as cell-based. The conditions noted are these: Staphylococcus aureus. The protocol: as §1, §2
Data set [4] relates to S. aureus ATCC 29213. Description: MIC and MBC determination (broth microdilution). In kind it is cell-based. The conditions noted are these: Staphylococcus aureus. As to the method: as §1, §2
The test system of the next data set is four S. aureus strains. Kind of data set: microbe, parasite or virus in culture. It is filed as cell-based, Staphylococcus aureus. The protocol:
To assess the propensity for the development of bacterial resistance, the ability of Z33 and tiamulin to induce resistance to four strains were tested, respectively. Serial passages at 37 °C were performed daily in BHI broth containing sub-MIC concentration (1/4 MIC) of Z33 and tiamulin. The MIC values were daily determined and recorded by the broth microdilution method. A duration of 13 passages was performed in every case.

For data set [5], the system named is S. aureus clinical strain 144. Description: Determination of MPC (mutant prevention concentration). It is filed as cell-based, Staphylococcus aureus. The protocol:
(§3) The drug-resistant tendency suppression potential of Z33 and tiamulin was determined as described with minor modifications. In the test, for each S. aureus strain, 4 mL of overnight cultures were inoculated into 100 mL of fresh BHI broth and then incubated for 4.5 h at 37 °C with shaking (210 rpm). Cultures were centrifuged at 5000 r/min for 10 min. The supernatant was discarded and resuspended in the 4 mL of saline to achieve a bacterial density of ~3 × 10^10 CFU/mL. In total, 100 μL of each culture was spread onto MHA containing various concentrations of Z33 and tiamulin. […] Plates were incubated at 37 °C for a total of 72 h and recorded every 24 h for the appearance of colonies. MPC was defined as the lowest concentration with no growth of colonies on the agar plate. MPC was carried out in triplicate.

The test system of data set [6] is S. aureus clinical strain AD3. The description is as above. It is filed as cell-based, Staphylococcus aureus. The protocol: as §3
Data set [7] relates to MRSA ATCC 43300. Described as above. In kind it is cell-based, Staphylococcus aureus. As to the method:
as §3

In data set [8] the test system is S. aureus ATCC 29213. The data set is described as above. In kind it is cell-based, Staphylococcus aureus. The protocol:
as §3

A further data set addresses T1, CYP2E1 (Homo sapiens, UniProt P05181).
T1 construct: 40 µL of the human liver microsomal enzyme (final concentration is 0.5 g/L); tissue Research Institute for Liver Diseases Co., Ltd. (Shanghai, China); host or cells: human liver microsomes
Description: CYP450 inhibition assay, human liver microsomes, chlorzoxazone probe. In kind it is in vitro ADME. Particulars: for IC50: human liver microsomes. The protocol: The inhibition effect of Z33 and tiamulin on the human liver microsomal enzyme was determined as described in the literature with some modifications. Experiments were performed in 96-well plates with a final incubation volume of 100 μL per well. 40 µL of the human liver microsomal enzyme (final concentration is 0.5 g/L), 20 µL of probe substrate (final concentration of testosterone and chlorzoxazone is 20 µmol/L), and 20 µL of test drug were mixed in each well. After preincubation at 37 °C for 5 min, the reactions were started by the addition of 20 μL of NADPH (final concentration is 1 mmol/L). Depending on the substrate, the chlorzoxazone and testosterone groups were incubated at 37 °C for 25 min and 10 min, respectively. The reaction was terminated by adding 100 µL of acetonitrile, and then the supernatant was centrifuged to analyse by LC-MS/MS.
In general terms: Liver microsomes are vesicles of endoplasmic reticulum, rich in cytochrome P450 enzymes.

A further data set relates to RAW264.7 cells. Kind of data set: Cytotoxicity test (MTT assay). It is filed as cell-based. The conditions noted are these: concentrations less than 5 μg/mL, 24 h, MTT. As to the method: (§4) To assess the effects of tiamulin and Z33 on the viability of RAW264.7 macrophages, the MTT assay was performed according to previous reports. […] After discarding the MTT solution, DMSO (150 μL) was added to each well to dissolve all crystals. OD490nm was recorded using EnSight Multimode Plate Reader (PerkinElmer, […], USA).
Background: Tetrazolium assays rely on reduction of a dye to a coloured formazan, in cell work by metabolically active cells.

A short description of data set [9]: Cytotoxicity test (MTT assay). It is filed as cell-based. The conditions noted are these: mouse, RAW264.7 macrophages, RAW264.7, MTT, tested up to 20 μg/mL. As to the method:
as §4

Molecules are shown by their SMILES. In brackets after ≈: the same amount, converted by molar mass. Read-outs that look alike come from different tables or passages of the source.

T1 sequence (P05181 whole entry): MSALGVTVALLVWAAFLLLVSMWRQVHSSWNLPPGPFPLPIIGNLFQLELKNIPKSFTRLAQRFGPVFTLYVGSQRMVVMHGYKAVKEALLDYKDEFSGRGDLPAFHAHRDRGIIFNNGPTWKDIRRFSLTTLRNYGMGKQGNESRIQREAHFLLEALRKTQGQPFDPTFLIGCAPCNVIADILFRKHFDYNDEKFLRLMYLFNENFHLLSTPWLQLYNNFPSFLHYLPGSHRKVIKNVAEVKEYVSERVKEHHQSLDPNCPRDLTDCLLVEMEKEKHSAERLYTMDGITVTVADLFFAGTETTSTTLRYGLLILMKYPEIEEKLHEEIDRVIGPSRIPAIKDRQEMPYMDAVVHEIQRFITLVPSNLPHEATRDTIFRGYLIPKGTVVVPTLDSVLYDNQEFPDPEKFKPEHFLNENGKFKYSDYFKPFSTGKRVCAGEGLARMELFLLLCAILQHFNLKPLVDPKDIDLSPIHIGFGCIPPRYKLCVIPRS

One may read the MIC as the lowest concentration that inhibits growth of the organism. The MBC is the smallest concentration meeting the test's criterion for killing. As a reminder, the IC50 is the midpoint of a concentration-inhibition curve. For the compound `C=C[C@]1(C)C[C@@H](OC(=O)CSc2ccccc2NC(=O)Cn2cc(CN3CCN(c4ccc([N+](=O)[O-])cc4)CC3)nn2)[C@]2(C)[C@H](C)CC[C@]3(CCC(=O)[C@H]32)[C@@H](C)[C@@H]1O` [Compound Z33, 22-(2-(2-(4-((4-(4-nitrophenyl)piperazin-1-yl)methyl)-1H-1,2,3-triazol-1-yl)acetamido)phenyl)thioacety-l-yl-22-deoxypleuromutilin], the MIC was found to be 0.25 µg/mL (≈ 0.307 µM) in data set [1] (first value of cell); 0.25 µg/mL (≈ 0.307 µM) in [2] (first value of cell); 0.125 µg/mL (≈ 0.154 µM) against MRSA ATCC 43300 [3] (first value of MIC/MBC cell); 0.125 µg/mL (≈ 0.154 µM) against S. aureus ATCC 29213 [4] (ATCC29213, first value of cell). Besides, the MBC is 0.25 µg/mL (≈ 0.307 µM) in [1] (second value of cell); 0.25 µg/mL (≈ 0.307 µM) in data set [2] (second value of cell); 0.25 µg/mL (≈ 0.307 µM) in the data set with MRSA ATCC 43300 [3] (second value of MIC/MBC cell); 0.125 µg/mL (≈ 0.154 µM) in the data set on S. aureus ATCC 29213 [4] (ATCC29213, second value of cell). In the data set with four S. aureus strains (after 13 passages), the “fold decrease in susceptibility of the most resistant strain” value is listed as 32 fold. Moreover, the “fold increase in MICs” value in the data set on four S. aureus strains (after 13 passages) is on record as “approximately 16 fold”. Further, the “passages after which resistance developed (≥ 4-fold MIC increase)” value in the data set on four S. aureus strains (four S. aureus strains) was 8 passages. In the data set on four S. aureus strains (in 7 passages, sub-MIC (1/4 MIC) exposure), the “fold increase in MIC” value is recorded as not above 4 fold. Besides, the MPC (in data set [5]; in [6]; in the data set on MRSA ATCC 43300 [7]; with S. aureus ATCC 29213 [8]) was 0.5 µg/mL throughout. Besides, the “fold difference of CYP2E1 IC50 relative to tiamulin” value at CYP2E1 (Z33 vs tiamulin) was “at least 50 fold”. Moreover, the IC50 on CYP2E1 (Figure 6, read-out: IC50 CYP2E1 (value in plot key)) was 10.2 µM; on CYP2E1 (bound given in text, read-out: IC50 CYP2E1), more than 10 µM. The “cytotoxicity on RAW264.7 cells” value in the data set on RAW264.7 cells is “No significant cytotoxicity”. Also, in data set [9], the half-maximal inhibitory concentration (IC50) at 24 h is not below 20 µg/mL.
